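Tested at 5 concentrations; 48 h exposure; 96-well plates; endpoints linearly interpolated, else capped at highest concentration. At the GI50, growth is halved.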 Active and inactive are the calls of the source. Cut-off read from the data, not from the text of the source: active = GI50 up to about 1.1 µM and inactive = higher.
Assays:
Assay in all cases: NCI anticancer screen, dose series, 48 h
MDA-MB-231 = tested on: MDA-MB-231
SK-MEL-5 = tested on: SK-MEL-5
RPMI-8226 = tested on: RPMI-8226
HCC 2998 = tested on: HCC 2998
K562 = tested on: K562
NCI-H23 = tested on: NCI-H23
SNB-19 = tested on: SNB-19
786-0 = tested on: 786-0
NCI-H226 = tested on: NCI-H226
IGROV-1 = tested on: IGROV-1
EKVX = tested on: EKVX
U-251 = tested on: U-251
HCT-15 = tested on: HCT-15
PC-3 = tested on: PC-3
MOLT-4 = tested on: MOLT-4
UACC-62 = tested on: UACC-62
CCRF-CEM = tested on: CCRF-CEM
NCI-H522 = tested on: NCI-H522
SK-MEL-28 = tested on: SK-MEL-28
NCI/ADR-RES = tested on: NCI/ADR-RES

Compound	GI50 (MDA-MB-231)	GI50 (SK-MEL-5)	GI50 (RPMI-8226)	GI50 (HCC 2998)	GI50 (K562)	GI50 (NCI-H23)	GI50 (SNB-19)	GI50 (786-0)	GI50 (NCI-H226)	GI50 (IGROV-1)	GI50 (EKVX)	GI50 (U-251)	GI50 (HCT-15) [µM]	GI50 (PC-3)	GI50 (MOLT-4)	GI50 (UACC-62)	GI50 (CCRF-CEM)	GI50 (NCI-H522)	GI50 (SK-MEL-28)	GI50 (NCI/ADR-RES)
CC(C)OC(=O)[C@H]1ON2O[C@H](O[C@@H]3CCCC[C@H]3c3ccccc3)C([Si](C)(C)c3ccccc3)[C@H]3OC(=O)[C@@H]1C32 (stereo not given in full)	> 100 µM (inactive)	> 100 µM (inactive)	> 100 µM (inactive)	> 100 µM (inactive)	34 µM (inactive)	> 100 µM (inactive)	> 100 µM (inactive)	> 100 µM (inactive)	> 100 µM (inactive)	> 100 µM (inactive)	> 100 µM (inactive)	> 100 µM (inactive)	> 100	> 100 µM (inactive)	18.7 µM (inactive)	> 100 µM (inactive)	94 µM (inactive)	81.3 µM (inactive)	> 100 µM (inactive)	> 100 µM (inactive)
Cc1nn(C(=O)c2ccc(Cl)cc2)c2c1C(c1ccc([N+](=O)[O-])cc1)SC(=N)N2 (stereo not given)	> 10 µM (inactive)	> 10 µM (inactive)	> 10 µM (inactive)	> 10 µM (inactive)	> 10 µM (inactive)	> 10 µM (inactive)	> 10 µM (inactive)	> 10 µM (inactive)	> 10 µM (inactive)	> 10 µM (inactive)	> 10 µM (inactive)	> 10 µM (inactive)	> 10	> 10 µM (inactive)	> 10 µM (inactive)	> 10 µM (inactive)	> 10 µM (inactive)	> 10 µM (inactive)	> 10 µM (inactive)	> 10 µM (inactive)
O=C1C(c2c(O)[nH]c3ccc(Br)cc23)=Nc2ccccc21	15 µM (inactive)	4.01 µM (inactive)	8.79 µM (inactive)	3.79 µM (inactive)	5.62 µM (inactive)	12.4 µM (inactive)	13.2 µM (inactive)	2.13 µM (inactive)	15.1 µM (inactive)	0.562 µM (active)	2.93 µM (inactive)	12.8 µM (inactive)	5.41	5 µM (inactive)	18.2 µM (inactive)	12.2 µM (inactive)	22.7 µM (inactive)	14.7 µM (inactive)	29 µM (inactive)	17.7 µM (inactive)
Nc1cc2c3c(cccc3c1)NC2=O	70.3 µM (inactive)	92.3 µM (inactive)	> 100 µM (inactive)	> 100 µM (inactive)	> 100 µM (inactive)	79.8 µM (inactive)	84.9 µM (inactive)	> 100 µM (inactive)	> 100 µM (inactive)	> 100 µM (inactive)	20.9 µM (inactive)	31.8 µM (inactive)	> 100	> 100 µM (inactive)	24 µM (inactive)	63 µM (inactive)	8.05 µM (inactive)	3.64 µM (inactive)	> 100 µM (inactive)	> 100 µM (inactive)
CCC1(OC(=O)CN2CCN(CCO)CC2)C(=O)OCc2c1cc1n(c2=O)Cc2cc3ccccc3nc2-1 (stereo not given)	14.1 µM (inactive)	0.281 µM (active)	0.962 µM (active)	0.45 µM (active)	0.583 µM (active)	0.167 µM (active)	0.216 µM (active)	0.13 µM (active)	0.329 µM (active)	0.778 µM (active)	4.51 µM (inactive)	0.143 µM (active)	1.49	0.405 µM (active)	0.034 µM (active)	0.0759 µM (active)	0.0324 µM (active)	0.306 µM (active)	3.33 µM (inactive)	0.11 µM (active)
